# According to publication PMC12379159 (Journal of Natural Products, 2025):
# Where a chain is given by its changes, count along the chain named.
# How the values were obtained:
# [1] = test system: Il17a and Il17f (Il17a/f); experiment: RT-qPCR of Il17a and Il17f in EL-4-mRORγt cells; assay type: cell-based, murine; settings: indicated concentrations, 20–24 h, then 4.5-h PMA and ionomycin
# Procedure: (§1) For RT-qPCR assays, 5 × 10^5 EL-4-mRORγt cells were seeded in 500 μL complete DMEM per well of a 24-well plate and treated with the vehicle control, the positive control, or the compounds of interest. After incubation for 20–24 h, cells were stimulated with Cell Activation Cocktail (PMA: 40.5 μM, ionomycin: 669.3 μM; 500X) for 4.5 h. Afterward, total RNA was isolated using the innuPREP RNA Mini Kit 2.0 according to the manufacturer’s instructions. According to the manufacturer’s instructions, 1 μg RNA was reverse-transcribed into cDNA using the High-Capacity cDNA Reverse Transcription Kit. RT-qPCR was performed using the Luna Universal qPCR Master Mix on a LightCycler 480 (Roche Diagnostics, Rotkreuz, Switzerland) according to the manufacturer’s instructions. […] Livak’s 2−ΔΔCt method was employed to determine the expression levels of RORγ target genes. This involved normalizing the target gene expression to the expression levels of the control gene 18s, followed by further normalization to the vehicle control.
# hRORγ LBD = biological target: T1, hRORγ LBD (Homo sapiens, UniProt P51449); experiment: Thermal stability by nano differential scanning fluorimetry (nanoDSF); assay type: binding; settings: RORγ-LBD with 4 equiv ligand vs without ligand; mean ± SD
# T1 construct: His tag (N, cleaved yes); made in house; host or cells: Escherichia coli BL21 DE3
# T1 sequence (P51449 264-518): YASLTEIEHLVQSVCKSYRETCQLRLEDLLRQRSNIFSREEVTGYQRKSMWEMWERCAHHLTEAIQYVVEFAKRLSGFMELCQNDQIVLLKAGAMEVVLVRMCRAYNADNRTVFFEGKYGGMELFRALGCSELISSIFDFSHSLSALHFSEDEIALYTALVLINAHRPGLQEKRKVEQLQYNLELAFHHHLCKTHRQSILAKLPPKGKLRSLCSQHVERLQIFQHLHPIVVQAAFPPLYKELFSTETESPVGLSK
# Procedure: Soluble proteins were purified on Ni Hitrap FFcrude column (Cytiva), followed by His tag removal by thrombin (MP Biomedicals) cleavage and by size exclusion chromatography on HiLoad Superdex200 column (Cytiva) equilibrated in 20 mM Tris-HCl pH 7.5, 150 mM NaCl, 1 mM TCEP (Hampton Research). Purity and homogeneity of the hRORγ LBD were assessed by SDS-PAGE. The purified protein was concentrated to 0.5–1.0 mg/mL with an Amicon Ultra 10 kDa MWCO. The aliquots of purified LBD were incubated with 4 equiv ligands or vehicle for thermal stability experiments.
# Fluorescence-based thermal experiments were performed using a Prometheus NT.48 (NanoTemper Technologies, Germany) with grade standard capillaries containing 10 μL of RORγLBD with different ligands. […] NanoTemper PR. Stability Analysis v1.0.2 was used to fit the data and determine the melting temperatures Tm.
# [2] = test system: interleukin 23 receptor (Il23r); experiment: RT-qPCR of Il23r in EL-4-mRORγt cells; assay type: cell-based, murine; settings: indicated concentrations, 20–24 h, then 4.5-h PMA and ionomycin
# Procedure: as §1
# Gal4-hRORγ = biological target: T2, Gal4-hRORγ (Homo sapiens, UniProt P51449); experiment: Gal4-RORγ mammalian one-hybrid luciferase assay; assay type: cell-based; settings: HEK293 cells
# T2 construct: Encodes for a hRORγ-LBD:Gal4-DBD fusion protein; expressed in transfected cells; host or cells: HEK293
# T2 sequence (P51449 269-508 limits assumed): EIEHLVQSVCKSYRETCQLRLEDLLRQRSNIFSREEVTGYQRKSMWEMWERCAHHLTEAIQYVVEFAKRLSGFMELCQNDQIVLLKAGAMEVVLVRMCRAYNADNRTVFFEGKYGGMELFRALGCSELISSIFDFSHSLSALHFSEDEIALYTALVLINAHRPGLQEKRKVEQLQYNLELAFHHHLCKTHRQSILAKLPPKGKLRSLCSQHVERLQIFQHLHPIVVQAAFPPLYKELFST
# Procedure: For luciferase assays, 8 × 10^6 HEK293 cells were seeded on 150 mm cell culture dishes and incubated for 5 h. Afterward, cells were transfected with the calcium phosphate coprecipitation method using 5 μg of the nuclear receptor (Gal4-hRORγ or full-length human RORγ), 5 μg of a luciferase reporter (pTK-MH100 × 4-LUC for Gal4-hRORγ experiments or RORE-LUC for full-length human RORγ experiments) and 3 μg eGFP-N1 (for assessing transfection efficiency) plasmid DNA and incubated overnight. […] The medium was changed the following day, and cells were further incubated for another four to 5 h before trypsin/EDTA was added to detach them from the dishes. […] RLUs were normalized to relative fluorescence units (RFU) to account for differences in cell number and transfection efficiency and then normalized to the vehicle control. Results are expressed as fold activation relative to the vehicle control.
# Concentration–response data were analyzed in GraphPad Prism version 10 by three-parameter logistic nonlinear regression, with the Hill slope constrained to a theoretical value of −1.0. An IC50 value was determined only for compounds yielding a statistically reliable fit. […] In these cases, only the maximal inhibition achieved at the highest tested concentration (I max(%) at 5 μM) is reported, calculated as follows: Imax(%)=(1−Bottom/Top)×100 (“top” = baseline activity measured at the lowest concentration, “bottom” = residual activity observed at the highest concentration, corresponding to the maximal inhibitory effect).
# Gal4-RORγ H479L = biological target: T3, Gal4-RORγ H479L (Homo sapiens, UniProt P51449, H479L); experiment: Gal4-RORγ H479L mutant luciferase assay; settings: 5 μM
# T3 sequence (P51449 269-508 H479L limits assumed): T2 sequence (P51449 269-508 limits assumed) with H211L
# Procedure: Gal4-hRORγ H323A and H479L mutants were generated using the QuikChange Lightning Site-Directed Mutagenesis Kit according to the manufacturer’s instructions. Briefly, 10 ng template DNA (Gal4-hRORγ) was PCR-amplified with the respective mutagenic forward and reverse primers listed in Table S3, which were designed using the QuikChange Primer Design tool (https://www.agilent.com/store/primerDesignProgram.jsp). […] Two μL of the PCR product were then transformed into XL1-Blue competent E. coli according to a protocol provided by NEB. […] After centrifuging the main culture at 5691g for 10 min, the supernatant was decanted, and plasmid preparation was performed using the PureLink HiPure Plasmid Midiprep Kit according to the manufacturer’s instructions. DNA yields and purities were checked using a NanoDrop 2000c (Thermo Fisher Scientific, Waltham, MA, USA).
smiles,measurement,setting,value
"C=C(C)[C@@H]1CC[C@]2(C(=O)O)CC[C@]3(C)[C@H](CC[C@@H]4[C@@]5(C)C/C(=C/c6ccco6)C(=O)C(C)(C)[C@@H]5CC[C@]43C)[C@@H]12 [Compound 15, (2Z)-2-(2-furanylmethylene)-3-oxolup-20(29)-en-28-oic acid]",Il17a expression,[1],failed to affect Il17a expression levels
same,Il17f expression,[1],slight yet concentration-dependent decrease
same,ΔTm measured with nano differential scanning fluorimetry,hRORγ LBD,9.6 ± 0.4 °C
same,Il23r expression,[2],concentration-dependent down-regulation
same,Activity in Gal4-RORγ luciferase assay (initial screen),Gal4-hRORγ; 3 μM,new inverse agonist of RORγ
same,"Imax(%) at 5 μM, Gal4-RORγ luciferase assay",Gal4-hRORγ; 5 μM,76%
same,IC50,"Gal4-hRORγ; 18 h treatment, up to 5 μM",400 nM
same,Activity on Gal4-RORγ H479L vs WT,Gal4-RORγ H479L,loss of activity
